US20250236608A1, “EGFR INHIBITORS” (Blueprint Medicines Corporation, priority 2022, published 2025)

Tests used:
EGFR L858R = EGFR L858R (Homo sapiens (Human), UniProt P00533, L858R); assay: Biochemical EGFR inhibition assay, EGFR L858R; conditions: Caliper mobility shift; 1.0 mM ATP or ATP Km; read-out: Enz EGFR_L858R IC50
Experimental: (§1) Reactions proceeded until between 10% to 20% total peptides were phosphorylated at room temperature (25° C.) and were terminated with 35 mM 2,2′,2″,2″-(ethane-1,2-diyldinitrilo)tetraacetic acid (EDTA). Product was detected using the Caliper mobility shift detection method where the phosphorylated peptide (product) and substrate were electrophoretically separated and measured. Percent activity was plotted against log concentration of compound and points to generate an apparent IC50.

EGFR (d746-750) = EGFR (d746-750) (Homo sapiens (Human), UniProt P00533, DEL746-750); assay: Biochemical EGFR inhibition assay, EGFR (d746-750); conditions: Caliper mobility shift; 1.0 mM ATP or ATP Km; read-out: Enz EGFR_Exon19-del746-750 IC50
Sequence of EGFR (d746-750) (P00533 other isoform, or with tags, fused parts or gaps del 1-694/del 746-750 limits assumed): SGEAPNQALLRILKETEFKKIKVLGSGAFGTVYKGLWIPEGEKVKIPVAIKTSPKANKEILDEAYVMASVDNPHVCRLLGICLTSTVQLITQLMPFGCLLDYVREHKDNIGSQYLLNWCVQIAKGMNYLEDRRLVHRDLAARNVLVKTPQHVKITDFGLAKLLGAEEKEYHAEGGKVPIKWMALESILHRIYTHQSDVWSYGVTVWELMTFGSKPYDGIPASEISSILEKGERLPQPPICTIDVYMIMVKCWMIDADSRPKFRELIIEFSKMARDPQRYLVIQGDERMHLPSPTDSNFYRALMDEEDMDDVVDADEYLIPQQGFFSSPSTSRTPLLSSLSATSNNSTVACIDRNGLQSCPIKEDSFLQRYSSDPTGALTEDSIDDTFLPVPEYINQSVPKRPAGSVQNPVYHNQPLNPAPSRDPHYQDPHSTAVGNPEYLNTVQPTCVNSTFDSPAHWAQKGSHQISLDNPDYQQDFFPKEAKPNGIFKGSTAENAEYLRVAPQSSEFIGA
Experimental: as §1

[1] = target: pEGFR (Tyr1068) in PC-9 cells (Ex19Del) (Homo sapiens (Human), UniProt P00533, DEL746-750); assay: PC-9 pEGFR AlphaLISA assay; assay type: cell-based; conditions: 4 hours incubation, p-EGFR (Tyr1068) AlphaLISA, read-out: Ext pEGFR_PC-9 Ex19Del IC50
Sequence of pEGFR (Tyr1068) in PC-9 cells (Ex19Del) (P00533 other isoform, or with tags, fused parts or gaps del 746-750): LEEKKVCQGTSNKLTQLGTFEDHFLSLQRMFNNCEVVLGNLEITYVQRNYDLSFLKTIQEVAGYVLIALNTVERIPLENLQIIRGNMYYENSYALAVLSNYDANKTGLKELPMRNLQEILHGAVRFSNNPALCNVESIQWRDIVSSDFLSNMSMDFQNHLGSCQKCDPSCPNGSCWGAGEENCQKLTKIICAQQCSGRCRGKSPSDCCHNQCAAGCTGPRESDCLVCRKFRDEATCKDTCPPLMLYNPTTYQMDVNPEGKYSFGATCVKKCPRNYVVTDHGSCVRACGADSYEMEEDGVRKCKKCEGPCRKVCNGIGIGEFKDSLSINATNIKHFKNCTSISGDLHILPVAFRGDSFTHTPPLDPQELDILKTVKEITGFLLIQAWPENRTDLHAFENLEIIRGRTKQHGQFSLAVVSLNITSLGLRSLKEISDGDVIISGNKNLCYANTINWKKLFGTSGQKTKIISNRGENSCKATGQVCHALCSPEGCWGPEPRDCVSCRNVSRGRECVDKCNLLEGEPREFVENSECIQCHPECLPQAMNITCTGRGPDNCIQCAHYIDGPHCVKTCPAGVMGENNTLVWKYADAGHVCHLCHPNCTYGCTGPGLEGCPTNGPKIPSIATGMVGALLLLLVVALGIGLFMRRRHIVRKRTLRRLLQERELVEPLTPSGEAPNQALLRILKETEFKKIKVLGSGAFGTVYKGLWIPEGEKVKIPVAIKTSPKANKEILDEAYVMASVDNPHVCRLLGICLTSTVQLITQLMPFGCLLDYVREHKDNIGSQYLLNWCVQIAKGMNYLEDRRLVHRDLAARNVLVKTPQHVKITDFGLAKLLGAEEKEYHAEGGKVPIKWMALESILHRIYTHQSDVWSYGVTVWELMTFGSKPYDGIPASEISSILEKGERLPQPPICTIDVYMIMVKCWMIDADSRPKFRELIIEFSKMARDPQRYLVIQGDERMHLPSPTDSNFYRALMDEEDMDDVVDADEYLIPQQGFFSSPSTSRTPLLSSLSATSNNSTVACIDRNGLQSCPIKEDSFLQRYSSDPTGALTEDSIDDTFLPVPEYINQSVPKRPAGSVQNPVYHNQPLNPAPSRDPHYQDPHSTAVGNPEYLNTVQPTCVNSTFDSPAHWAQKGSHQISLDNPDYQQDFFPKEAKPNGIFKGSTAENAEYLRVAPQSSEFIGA
Experimental: PC-9/A431 pEGFR AlphaLISA Assays
Inhibitory effects of compounds were evaluated in cellular assays that measure level of intracellular phosphorylation of EGFR in PC-9 (ECACC, #90071810, Milipore/Sigma) and A431 cell lines (ATCC, CRL-1555) using AlphaLISA sureFire ultra p-EGFR (Tyr1068) assay kit (PerkinElmer, ALSU-PEGFR-A50K). PC-9 cells were seeded at 3.125×10^5 cells/ml in 40 μL phenol-free DMEM supplemented with 10% FBS per well of a 384 well plate (Corning, 3764), while A431 were seeded at 3.125×10^5 cells/ml in 40 μL in phenol-free DMEM with 0.5% FBS. Cells were allowed to adhere overnight at 37° C./5% CO2. On the next day, compounds were transferred at 4-fold, 10-point serial dilution from compound source plate to cell plates using liquid handler Echo550 and were incubated at 37° C./5% CO2 for 4 hours. A431 cells were stimulated prior harvesting for 10 min with EGF at final concentration of 30 ng/ml in the incubator. Medium was removed from the plates and cells were lysed with 10 μL of 1× AlphaLISA lysis buffer (supplemented with 1× protease/phosphatase inhibitor cocktail) followed by shaking at 600 rpm for 30 minutes at room temperature. Lysates were transferred to Optiplate (Apricot designs) and 5 μl of 1× acceptor bead mix (prepared just before use) was added to each well followed by incubation at room temperature for 1.5-2 h in dark. Then 5 μL of freshly-made donor bead mix is added to each well under subdued lighting or green filters, was mixed well on the shaker and the plate was sealed and left for an overnight incubation at room temperature in dark. On the next day, the plate was read the Envision using standard AlphaLisa settings. Percent of pEGFR inhibition was plotted against log concentration of compounds to generate IC50 values.

Sequence of EGFR L858R (P00533 25-1210 L858R): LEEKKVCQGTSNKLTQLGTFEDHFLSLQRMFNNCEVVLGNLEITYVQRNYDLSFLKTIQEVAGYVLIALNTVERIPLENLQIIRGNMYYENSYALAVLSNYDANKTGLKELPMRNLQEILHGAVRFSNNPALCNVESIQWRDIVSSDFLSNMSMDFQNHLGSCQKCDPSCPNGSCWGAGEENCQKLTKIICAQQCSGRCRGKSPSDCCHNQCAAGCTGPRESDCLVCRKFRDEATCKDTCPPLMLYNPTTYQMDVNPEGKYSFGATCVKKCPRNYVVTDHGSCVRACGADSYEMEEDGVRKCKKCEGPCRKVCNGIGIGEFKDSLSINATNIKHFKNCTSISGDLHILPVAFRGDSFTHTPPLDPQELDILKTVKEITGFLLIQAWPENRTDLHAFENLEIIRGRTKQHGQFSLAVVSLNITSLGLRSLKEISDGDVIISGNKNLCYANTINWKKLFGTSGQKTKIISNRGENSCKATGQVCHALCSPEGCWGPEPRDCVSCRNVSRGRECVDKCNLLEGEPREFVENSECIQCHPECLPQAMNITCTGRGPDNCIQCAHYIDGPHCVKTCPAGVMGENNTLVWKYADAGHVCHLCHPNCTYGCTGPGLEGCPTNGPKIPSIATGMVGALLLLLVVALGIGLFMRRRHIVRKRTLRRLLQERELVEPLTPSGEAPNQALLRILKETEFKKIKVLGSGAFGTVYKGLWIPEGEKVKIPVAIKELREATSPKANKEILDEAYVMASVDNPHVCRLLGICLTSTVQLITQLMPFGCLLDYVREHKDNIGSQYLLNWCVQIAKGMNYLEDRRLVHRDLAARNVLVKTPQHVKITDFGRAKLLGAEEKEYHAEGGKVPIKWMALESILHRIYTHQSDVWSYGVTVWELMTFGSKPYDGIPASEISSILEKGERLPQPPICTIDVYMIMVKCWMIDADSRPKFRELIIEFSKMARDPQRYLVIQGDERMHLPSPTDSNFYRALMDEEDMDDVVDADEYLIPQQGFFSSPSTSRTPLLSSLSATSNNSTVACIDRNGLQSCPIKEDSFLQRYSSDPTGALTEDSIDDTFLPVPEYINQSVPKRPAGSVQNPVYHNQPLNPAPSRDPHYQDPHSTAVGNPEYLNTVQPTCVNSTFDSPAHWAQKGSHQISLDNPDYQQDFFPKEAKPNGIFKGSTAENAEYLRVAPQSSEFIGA

Row | SMILES | IC50 (EGFR L858R) [nM] | IC50 (EGFR (d746-750)) [nM] | IC50 [1] [nM]
1 | COc1cc2ncnc(-c3cn(C)nc3-c3ccccc3)c2cc1OC(=O)N1CCN(C)C(C)(C)C1 [Example 77, 7-methoxy-4-(1-methyl-3-phenyl-1H-pyrazol-4-yl)quinazolin-6-yl 3,3,4-trimethylpiperazine-1-carboxylate] | 7.2 | 3.5 | 9.7
2 | COc1cc2ncnc(-c3cn(C)nc3-c3ccccc3)c2cc1O[C@@H]1CCN(C)C[C@H]1F [Example 1, 6-(((3R,4R)-3-fluoro-1-methylpiperidin-4-yl)oxy)-7-methoxy-4-(1-methyl-3-phenyl-1H-pyrazol-4-yl)quinazoline] | 4.2 | 1.8 | 4.2
3 | COc1cc2ncnc(-c3cn(C)nc3-c3ccccc3)c2cc1OC(=O)N1CCN(C)[C@H]2C[C@H]21 (racemic) [Example 82, Cis-rac-7-methoxy-4-(1-methyl-3-phenyl-1H-pyrazol-4-yl)quinazolin-6-yl (1R,6S)-5-methyl-2,5-diazabicyclo[4.1.0]heptane-2-carboxylate] | 5.3 | 3.3 | 3.9
4 | COc1cc2ncnc(-c3cn(C)nc3-c3ccccc3)c2cc1O[C@H]1CN(C)C[C@H]1F [Example 4, 6-(((3S,4R)-4-fluoro-1-methylpyrrolidin-3-yl)oxy)-7-methoxy-4-(1-methyl-3-phenyl-1H-pyrazol-4-yl)quinazoline] | 4.1 | 2.4 | 8.5
5 | CCOc1cc2ncnc(-c3cn(C)nc3-c3ccccc3)c2cc1N1CCN(C)C[C@@H]1C [Example 174, (S)-6-(2,4-dimethylpiperazin-1-yl)-7-ethoxy-4-(1-methyl-3-phenyl-1H-pyrazol-4-yl)quinazoline] | 2.8 | 2.3 | 3.4
6 | COc1cc2ncnc(-c3cn(C)nc3-c3ccccc3)c2cc1OC(=O)N1CCOC[C@H]1C [Example 61, 7-methoxy-4-(1-methyl-3-phenyl-1H-pyrazol-4-yl)quinazolin-6-yl (R)-3-methylmorpholine-4-carboxylate] | 4.5 | 2.3 | 7.9
7 | COc1cc2ncnc(-c3cn(C)nc3-c3ccccc3)c2cc1C(C)O (stereo not drawn) [Example 100, 1-(7-methoxy-4-(1-methyl-3-phenyl-1H-pyrazol-4-yl)quinazolin-6-yl)ethan-1-ol] | 2.9 | 2 | 7.6
8 | COc1cc2ncnc(-c3cn(C)nc3-c3ccccc3)c2cc1OC(=O)N1C(C)CN(C)C[C@H]1C (stereo in doubt) [Example 90, 7-methoxy-4-(1-methyl-3-phenyl-1H-pyrazol-4-yl)quinazolin-6-yl (2R,6R)-2,4,6-trimethylpiperazine-1-carboxylate] | 14 | 8.5 | 31.6
9 | COc1cc2ncnc(-c3cn(C)nc3-c3ccccc3)c2cc1NC(=O)N1CCOC(C)(C)C1 [Example 184, N-[7-methoxy-4-(1-methyl-3-phenyl-1H-pyrazol-4-yl)quinazolin-6-yl]-2,2-dimethylmorpholine-4-carboxamide] | 3.5 | 1.8 | 7.9
10 | COc1cc2ncnc(-c3cn(C)nc3-c3ccc(F)cc3)c2cc1NC(=O)C1(CN(C)C)CC1 [Example 211, 1-((dimethylamino)methyl)-N-(4-(3-(4-fluorophenyl)-1-methyl-1H-pyrazol-4-yl)-7-methoxyquinazolin-6-yl)cyclopropane-1-carboxamide] | 2.8 | 1.5 | 3.3
11 | COc1cc2ncnc(-c3cn(C)nc3-c3ccccc3)c2cc1NC(=O)c1cccc(F)c1Cl [Example 199, 2-chloro-3-fluoro-N-(7-methoxy-4-(1-methyl-3-phenyl-1H-pyrazol-4-yl)quinazolin-6-yl)benzamide] | 1.6 | 1.1 | 1.9

Other lines, results leading:

Row | IC50 (EGFR L858R) [nM] | IC50 (EGFR (d746-750)) [nM] | IC50 [1] [nM] | SMILES
12 | 5.4 | 2 | 6.6 | COc1cc2ncnc(-c3cn(C)nc3-c3ccccc3)c2cc1NC(=O)[C@H](C)N(C)C (single isomer, unassigned) [Example 237, (R)-2-(dimethylamino)-N-(7-methoxy-4-(1-methyl-3-phenyl-1H-pyrazol-4-yl)quinazolin-6-yl) propenamide or (S)-2-(dimethylamino)-N-(7-methoxy-4-(1-methyl-3-phenyl-1H-pyrazol-4-yl)quinazolin-6-yl) propenamide]
13 | 1.3 | 0.8 | 0.5 | COc1cc2ncnc(-c3cn(C)nc3-c3ccccc3)c2cc1NC(=O)[C@H]1CCN(C)C[C@@H]1F [Example 285, (3R,4R)-3-fluoro-N-(7-methoxy-4-(1-methyl-3-phenyl-1H-pyrazol-4-yl)quinazolin-6-yl)-1-methylpiperidine-4-carboxamide]
14 | 1.7 | 1 | 0.8 | COc1cc2ncnc(-c3cn(C)nc3-c3ccccc3)c2nc1NC(=O)C1CC1 [Example 355, N-(7-methoxy-4-(1-methyl-3-phenyl-1H-pyrazol-4-yl)pyrido[3,2-d]pyrimidin-6-yl)cyclopropanecarboxamide]
15 | 1.8 | 0.9 | 2 | COc1cc2ncnc(-c3cn(C4CC4)nc3-c3ccccc3)c2nc1NC(=O)c1cnn(C(F)(F)F)c1 [Example 365, N-(4-(1-cyclopropyl-3-phenyl-1H-pyrazol-4-yl)-7-methoxypyrido[3,2-d]pyrimidin-6-y1)-1-(trifluoromethyl)-1H-pyrazole-4-carboxamide]
16 | 0.7 | 0.6 | 0.4 | CCn1cc(-c2ncnc3cc(-c4cnn(C)c4)ccc23)c(-c2ccccc2)n1 [Example 496]
17 | 3.2 | 1.7 | 3.4 | COc1cc2ncnc(-c3cn(C)nc3-c3ccccc3)c2cc1NC(=O)C1(C)CCC1 [Example 348, N-(7-methoxy-4-(1-methyl-3-phenyl-1H-pyrazol-4-yl)quinazolin-6-y1)-1-methylcyclobutane-1-carboxamide]
18 | 1.3 | 0.7 | 0.4 | CCC(=O)Nc1cc2c(-c3cn(C)nc3-c3c(F)cccc3F)ncnc2cc1-c1ccn(C)n1 [Example 453, N-(4-(3-(2,6-difluorophenyl)-1-methyl-1H-pyrazol-4-yl)-7-(1-methyl-1H-pyrazol-3-yl)quinazolin-6-yl)propionamide]
19 | 3.9 | 1.5 | 4.6 | COc1cc2ncnc(-c3cn(C)nc3-c3ccccc3)c2nc1NC(=O)C12CCCN1CCC2 [Example 368, N-(7-methoxy-4-(1-methyl-3-phenyl-1H-pyrazol-4-yl)pyrido[3,2-d]pyrimidin-6-yl)tetrahydro-1H-pyrrolizine-7a(5H)-carboxamide]
20 | 3.1 | 1.3 | 3.8 | COc1cc2ncnc(-c3cn(C)nc3-c3ccc(F)cc3)c2nc1NC(=O)C12CC(N(C)C)(C1)C2 [Example 402, 3-(dimethylamino)-N-(4-(3-(4-fluorophenyl)-1-methyl-1H-pyrazol-4-yl)-7-methoxypyrido[3,2-d]pyrimidin-6-yl)bicyclo[1.1.1]pentane-1-carboxamide]
21 | 1.5 | 1 | 2.7 | C[C@@H](O)c1cc2c(-c3cn(CC(F)F)nc3-c3ccccc3)ncnc2cc1-c1cnn(C)c1 (single isomer, unassigned) [Example 445, (R)-1-(4-(1-(2,2-difluoroethyl)-3-phenyl-1H-pyrazol-4-yl)-7-(1-methyl-1H-pyrazol-4-yl)quinazolin-6-yl)ethan-1-ol or (S)-1-(4-(1-(2,2-difluoroethyl)-3-phenyl-1H-pyrazol-4-yl)-7-(1-methyl-1H-pyrazol-4-yl)quinazolin-6-yl)ethan-1-ol]
22 | 3.5 | 0.8 | 3.1 | COc1cc2ncnc(-c3cn(C)nc3-c3ccccc3)c2nc1NC(=O)C1(C)CCCO1 (stereo not drawn) [Example 316, N-(7-methoxy-4-(1-methyl-3-phenyl-1H-pyrazol-4-yl)pyrido[3,2-d]pyrimidin-6-yl)-2-methyltetrahydrofuran-2-carboxamide]
